# Molecular target: T1, human IGF-1R (Homo sapiens, UniProt P08069)
# T1 construct: human IGF-1R, amino acids 954-1367 expressed by baculovirus in Sf21 cells; GST (C); purchased Cell Signaling Technology; host or cells: baculovirus in Sf21 cells
# Assay: IGF-1R homogenous time-resolved fluorescence (HTRF) in vitro kinase assay
# Format: biochemical
# Details: recombinant GST-tagged human IGF-1R aa 954-1367; ATP 50 μM; 60 minutes at room temperature
# Experimental: IGF-1R kinase activity was assayed by a homogenous time-resolved fluorescence (HTRF) in vitro kinase assay (Mathis, G., HTRF(R) Technology. J Biomol Screen, 1999. 4(6): p. 309-314). Specifically, 10 μL C-terminal GST-tagged, recombinant, human IGF-1R, amino acids 954-1367 expressed by baculovirus in Sf21 cells (Cell Singaling Technology) was mixed with 10 μL inhibitor (various concentrations, 2% final DMSO) and 10 μL of ATP (50 μM final concentration) in reaction buffer (50 mM HEPES, pH 7.5, 10 mM MgCl2, 2 mM MnCl2, 0.1% BSA and 1 mM DTT, 40 μL final volume). The reaction was initiated by addition of 10 μL of biotinylated peptide substrate (Biotin-Ahx-[…], 0.5 μM final concentration) in a black 384-well plate (Packard). […] The quenched reaction was allowed to stand at room temperature for 1 hour and then read in a time-resolved fluorescence detector (Envision, Perkin Elmer) at 615 nm and 665 nm simultaneously. The ratio between the signal of 615 nm and 665 nm was used in the calculation of the IC50.
# T1 sequence (P08069 954-1367): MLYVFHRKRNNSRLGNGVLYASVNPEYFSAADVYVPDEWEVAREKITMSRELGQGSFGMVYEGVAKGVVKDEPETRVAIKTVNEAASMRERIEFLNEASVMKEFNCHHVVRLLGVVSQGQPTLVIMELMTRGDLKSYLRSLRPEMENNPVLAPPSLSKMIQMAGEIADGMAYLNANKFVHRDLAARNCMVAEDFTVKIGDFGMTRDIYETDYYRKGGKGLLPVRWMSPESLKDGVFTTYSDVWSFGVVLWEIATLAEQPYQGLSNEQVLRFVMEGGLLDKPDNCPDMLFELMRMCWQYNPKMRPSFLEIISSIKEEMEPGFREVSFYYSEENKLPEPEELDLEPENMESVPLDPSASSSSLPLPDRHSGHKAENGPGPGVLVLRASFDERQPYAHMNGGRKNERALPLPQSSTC
row,SMILES,IC50 [nM]
1,"CNC(=O)c1cc2c(cnn2C)cc1Nc1nc(Nc2ccc(N3CCOCC3)cc2OC)ncc1Br [Example 41, 5-({5-bromo-2-[(2-methoxy-4-morpholin-4-ylphenyl)amino]pyrimidin-4-yl}amino)-N,1-dimethyl-1H-indazole-6-carboxamide]",10 to 50
2,"COc1cc(N2CCC(N(C)C)CC2)ccc1Nc1ncc(Br)c(Nc2ccc3c(cnn3C)c2)n1 [Example 19, 5-bromo-N^2-{4-[4-(dimethylamino)piperidin-1-yl]-2-methoxyphenyl}-N^4-(1-methyl-1H-indazol-5-yl)pyrimidine-2,4-diamine]",51 to 100
3,"CCN1CCN(c2ccc(Nc3ncc(Br)c(Nc4ccc5[nH]ncc5c4)n3)cc2)CC1 [Example 7, 5-bromo-N^2-[4-(4-ethylpiperazin-1-yl)phenyl]-N^4-1H-indazol-5-ylpyrimidine-2,4-diamine]",51 to 100
4,"CCN1CCN(c2ccc(Nc3ncc(C)c(Nc4ccc5[nH]ncc5c4)n3)cc2)CC1 [Example 9, N^2-[4-(4-ethylpiperazin-1-yl)phenyl]-N^4-1H-indazol-5-yl-5-methylpyrimidine-2,4-diamine]",> 500
5,"COc1cc(N2CCC(N(C)C)CC2)ccc1Nc1ncc(Cl)c(Nc2ccc3c(cnn3C)c2)n1 [Example 18, 5-chloro-N^2-{4-[4-(dimethylamino)piperidin-1-yl]-2-methoxyphenyl}-N^4-(1-methyl-1H-indazol-5-yl)pyrimidine-2,4-diamine]",101 to 500
6,"CCS(=O)(=O)c1cc2c(cnn2C)cc1Nc1nc(Nc2ccc(N3CCC(N(C)C)CC3)cc2OC)ncc1Br [Example 33, 5-bromo-N^2-{4-[4-(dimethylamino)piperidin-1-yl]-2-methoxyphenyl}-N^4-[6-(ethylsulfonyl)-1-methyl-1H-indazol-5-yl]pyrimidine-2,4-diamine]",< 10
7,"COc1cc(N2CCC(N(C)C)CC2)ccc1Nc1ncc(Br)c(Nc2cc3cn[nH]c3cc2SC(C)C)n1 [Example 24, 5-bromo-N^2-{4-[4-(dimethylamino)piperidin-1-yl]-2-methoxyphenyl}-N^4-[6-(isopropylthio)-1H-indazol-5-yl]pyrimidine-2,4-diamine]",10 to 50
8,"CCN1CCN(c2ccc(Nc3ncc(Br)c(Nc4ccc5c(c4)ncn5Cc4ccccc4)n3)cc2)CC1 [Example 4, N^4-(1-benzyl-1H-benzimidazol-5-yl)-5-bromo-N^2-[4-(4-ethylpiperazin-1-yl)phenyl]pyrimidine-2,4-diamine]",101 to 500
9,"CCN1CCN(c2ccc(Nc3ncc(Br)c(Nc4cccc5[nH]c(C)nc45)n3)cc2)CC1 [Example 6, 5-bromo-N^2-[4-(4-ethylpiperazin-1-yl)phenyl]-N^4-(2-methyl-1H-benzimidazol-4-yl)pyrimidine-2,4-diamine]",> 500
10,"CCS(=O)(=O)c1cc2[nH]ncc2cc1Nc1nc(Nc2ccc(N3CCC(N(C)C)CC3)cc2)ncc1Br [Example 31, 5-bromo-N^2-{4-[4-(dimethylamino)piperidin-1-yl]phenyl}-N^4-[6-(ethylsulfonyl)-1H-indazol-5-yl]pyrimidine-2,4-diamine]",10 to 50
11,"COc1cc(N2CCC(N(C)C)CC2)ccc1Nc1ncc(Br)c(Nc2ccc3[nH]ncc3c2)n1 [Example 12, 5-bromo-N^2-{4-[4-(dimethylamino)piperidin-1-yl]-2-methoxyphenyl}-N^4-1H-indazol-5-ylpyrimidine-2,4-diamine]",10 to 50
12,"CNC(=O)c1cc2c(cnn2C)cc1Nc1nc(Nc2ccc(N3CCC(N(C)C)CC3)cc2OC)ncc1Br [Example 35, 5-{[5-bromo-2-({4-[4-(dimethylamino)piperidin-1-yl]-2-methoxyphenyl}amino)pyrimidin-4-yl]amino}-N,1-dimethyl-1H-indazole-6-carboxamide]",10 to 50

# Continued, values first:
row,IC50 [nM],SMILES
1,10 to 50,"COc1cc(N2CCN(C(C)C)CC2)ccc1Nc1ncc(Br)c(Nc2cc3cnn(C)c3cc2S(C)(=O)=O)n1 [Example 43, 5-bromo-N^2-[4-(4-isopropylpiperazin-1-yl)-2-methoxyphenyl]-N^4-[1-methyl-6-(methylsulfonyl)-1H-indazol-5-yl]pyrimidine-2,4-diamine]"
2,51 to 100,"CCS(=O)(=O)c1cc2c(cnn2C)cc1Nc1nc(Nc2ccc(N3CCS(=O)(=O)CC3)cc2)ncc1Br [Example 45, 5-bromo-N^2-[4-(1,1-dioxidothiomorpholin-4-yl)phenyl]-N^4-[6-(ethylsulfonyl)-1-methyl-1H-indazol-5-yl]pyrimidine-2,4-diamine]"
3,< 10,"CCS(=O)(=O)c1cc2c(cnn2C)cc1Nc1nc(Nc2ccc(N3CCN(C(C)C)CC3)cc2OC)ncc1Br [Example 42, 5-bromo-N^4-[6-(ethylsulfonyl)-1-methyl-1H-indazol-5-yl]-N^2-[4-(4-isopropylpiperazin-1-yl)-2-methoxyphenyl]pyrimidine-2,4-diamine]"
4,10 to 50,"COc1cc(N2CCC(N3CCN(C)CC3)CC2)ccc1Nc1ncc(Br)c(Nc2ccc3ncccc3c2)n1 [Example 49, 5-bromo-N^2-{2-methoxy-4-[4-(4-methylpiperazin-1-yl)piperidin-1-yl]phenyl}-N^4-quinolin-6-ylpyrimidine-2,4-diamine]"
5,> 500,"COc1cc(N2CCC(N3CCN(C)CC3)CC2)ccc1Nc1ncc(Br)c(Nc2ccc3nc(-c4ccccc4)ccc3c2)n1 [Example 47, 5-bromo-N^2-{2-methoxy-4-[4-(4-methylpiperazin-1-yl)piperidin-1-yl]phenyl}-N^4-(2-phenylquinolin-6-yl)pyrimidine-2,4-diamine]"
6,10 to 50,"COc1cc(N2CCC(N3CCN(C)CC3)CC2)ccc1Nc1ncc(Br)c(Oc2ccc3cccnc3c2)n1 [Example 51, 5-bromo-N-{2-methoxy-4-[4-(4-methylpiperazin-1-yl)piperidin-1-yl]phenyl}-4-(quinolin-7-yloxy)pyrimidin-2-amine]"
7,< 10,"CCS(=O)(=O)c1cc2c(cnn2C)cc1Nc1nc(Nc2ccc(N3CCC(N4CCN(C)CC4)CC3)cc2OC)ncc1Br [Example 46, 5-bromo-N^4-[6-(ethylsulfonyl)-1-methyl-1H-indazol-5-yl]-N^2-{2-methoxy-4-[4-(4-methylpiperazin-1-yl)piperidin-1-yl]phenyl}pyrimidine-2,4-diamine]"
8,10 to 50,"CNC(=O)c1cc2c(cnn2C)cc1Nc1nc(Nc2ccc(N3CCN(C(C)C)CC3)cc2OC)ncc1Br [Example 44, 5-[(5-bromo-2-{[4-(4-isopropylpiperazin-1-yl)-2-methoxyphenyl]amino}pyrimidin-4-yl)amino]-N,1-dimethyl-1H-indazole-6-carboxamide]"
9,10 to 50,"COc1cc(N2CCC(N3CCN(C)CC3)CC2)ccc1Nc1ncc(Br)c(Nc2ccc3cccnc3c2)n1 [Example 50, 5-bromo-N^2-{2-methoxy-4-[4-(4-methylpiperazin-1-yl)piperidin-1-yl]phenyl}-N^4-quinolin-7-ylpyrimidine-2,4-diamine]"
